Where two headings read alike, the source gives them in different places.
Tests used:
β1-adrenoceptor = target: T1, β1-adrenoceptor (Rattus norvegicus, UniProt P18090); test: β1-adrenoceptor stimulation in isolated tissue: heart rate increment of rat atrium (Magnus method); parameters: species or system SD rat; conditions: read-out: β1 receptor EC50
T1 construct: The atrium of male SD rat (body weight 250-400 g) was isolated; from tissue; host or cells: SD rat atrium
Method: 2) Measurement of β1-adrenoceptor Stimulation
The atrium of male SD rat (body weight 250-400 g) was isolated and the experiment was conducted according to a Magnus method. The preparation was suspended in a Krebs-Henseleit solution maintained at 37° C. and gassed with a mixed gas of 95% O2 and 5% CO2 and stretched at a tension of 0.5 g. The myocardial contractility was outputted through an isometric force transducer and recorded on an oscillograph through a tachometer. The test compound was added cumulatively into a Magunus bath.

ddY mice adipocytes = test: Lipolysis in ddY mice adipocytes (free fatty acid release); type: cell-based; conditions: Mus musculus, Adipocyte, 2 h; read-out: Lipolysis acticity EC50 value
Method: Epididymal fat tissue of ddY mice (body weight 35 g) was removed and isolated to cells by collagenase (typeI, 1 mg/ml) in a culture medium (Krebs-Henseleit solution inclusive of 3% BSA, 1.2 mM CaCl2 and 25 mM HEPES but exclusive of NaHCO3; pH7.4) maintained at 37° C. After rinsing the cells in the culture medium, 50,000 cells/well were seeded in a 96-well culture plate and were incubated at 37° C. in the presence of various concentration of test compounds. Two hours later, the concentration of free fatty acid in the culture medium was measured and it was made as an index for lipolysis. The concentration of free fatty acid was measured by means of NEFA C-test wako (WAKO).
(R)-3′-[[2-[[2-(3-chlorophenyl)-2-hydroxyethyl]amino-ethoxy]-[1,1′-biphenyl]-3-carboxylic acid which was described in example 17 on WO99/65877 was also examined as a comparison example.

human β3-adrenoceptor = target: T2, human β3-adrenoceptor (Homo sapiens, UniProt P13945); test: Agonistic activities on human β3-adrenoceptor (cAMP accumulation in SK-N-MC cells); type: cell-based; conditions: for β3 receptor I.A.: intrinsic activity: maximum reaction relative to isoproterenol maximum (100%); for EC50: read-out: β3 receptor EC50
T2 construct: SK-N-MC cells (American Type Culture Collection, 1×10^5 cell/mL) were put in 96 well plates; host or cells: SK-N-MC cells
T2 sequence (P13945 whole entry): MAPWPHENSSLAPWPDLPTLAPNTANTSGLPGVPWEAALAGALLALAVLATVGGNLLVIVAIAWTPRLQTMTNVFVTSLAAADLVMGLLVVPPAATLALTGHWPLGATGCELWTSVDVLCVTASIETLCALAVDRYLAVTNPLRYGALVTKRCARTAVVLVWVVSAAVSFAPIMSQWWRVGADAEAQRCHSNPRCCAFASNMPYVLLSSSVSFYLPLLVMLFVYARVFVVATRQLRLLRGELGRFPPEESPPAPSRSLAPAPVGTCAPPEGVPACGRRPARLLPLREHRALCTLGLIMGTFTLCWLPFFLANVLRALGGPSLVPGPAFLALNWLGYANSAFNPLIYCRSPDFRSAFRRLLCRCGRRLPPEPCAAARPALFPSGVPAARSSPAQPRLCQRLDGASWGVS
Method: 1. Measurement of Agonistic Activities on Human β3-adrenoceptor
Test compounds were dissolved in 50% dimethyl sulfoxide to make a 10^−2 M solution. Then, a series of 1:10 dilutions containing a maximal dose of 1×10^−4 M were prepared using D-PBS (−) (Gibco-BRL: LIFE TECHNOLOGIES). The series were used for a testing sample to measure activity. SK-N-MC cells (American Type Culture Collection, 1×10^5 cell/mL) were put in 96 well plates by 100 μL and were cultured for about 24 hours. […] After that, 20 μL of 3-isobutyl-1-methylxanthine (SIGMA, 1×10^−2 mol/L D-PBS (−) solution) and 20 μL of testing sample were added in them and they were incubated under an atmosphere of 5% CO2 at 37° C. for 30 minutes. cAMP concentrations accumulated in cells were reacted in cAMP-Screen (Applied Biosystems) and were detected by Microplate LuminometerTR717 (Applied Biosystems).

human β1-adrenoceptor = target: T3, human β1-adrenoceptor (Homo sapiens, UniProt P08588); test: Agonistic activities on human β1-adrenoceptor (cAMP in transfected CHO cells); type: cell-based; conditions: for β1 receptor I.A.: intrinsic activity: maximum reaction relative to isoproterenol maximum (100%)
T3 construct: Both ends of a domain including full length of human β1-adrenoceptor were amplified; expressed in transfected cells; host or cells: CHO cells
T3 sequence (P08588 whole entry): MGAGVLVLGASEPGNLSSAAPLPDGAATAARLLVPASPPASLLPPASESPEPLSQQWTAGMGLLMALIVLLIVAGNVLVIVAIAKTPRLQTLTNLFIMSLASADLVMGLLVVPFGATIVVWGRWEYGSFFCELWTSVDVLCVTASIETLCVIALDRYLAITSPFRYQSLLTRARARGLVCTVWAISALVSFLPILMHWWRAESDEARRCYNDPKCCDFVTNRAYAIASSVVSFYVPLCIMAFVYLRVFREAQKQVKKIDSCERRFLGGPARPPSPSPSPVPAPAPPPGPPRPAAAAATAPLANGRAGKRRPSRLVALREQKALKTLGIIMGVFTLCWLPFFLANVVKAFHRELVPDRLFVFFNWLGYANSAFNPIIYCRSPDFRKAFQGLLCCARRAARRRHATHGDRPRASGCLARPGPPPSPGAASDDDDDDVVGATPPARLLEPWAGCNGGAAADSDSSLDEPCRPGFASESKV
Text: (§1) 2. Measurement of Agonistic Activities on Human β1- and β2-adrenoceptors
(1) Human β1-adrenoceptor
Both ends of a domain including full length of human β1-adrenoceptor were amplified on the basis of DNA base information that is registered with GenBank/EMBL data base as Accession No. J03019. DNA fragment which was amplified was inserted into a vector for cloning and amplified in Escherichia coli bacteria. The plasmid which was cloned was inserted into a vector pCI-neo (Promega) for protein expression and plasmid DNA was extracted and purified, then it was used for a preparation of the following expression cells.
(1) Preparation of Human β1-adrenoceptor Expressed Cells
The plasmid (320 ng) for expression which was obtained in the previous section was transfected into 5×10^4 CHO cells suspended in DMEM (Gibco-BRL: LIFE TECHNOLOGIES) containing 10% fetal bovine serum (Sanko Junyaku) by means of Lipofectoamine2000 (Invitrogen). These cells were dispensed in 96 well plate by 5×10^4 cells/100 μL per well and were cultured under an atmosphere of 5% CO2 at 37° C. for 24 hours, and were used for the assay.
(§2) 3) Measurement of Agonistic Activities on Human β1- and β2-adrenoceptors
(§3) Test compounds were dissolved in 50% dimethyl sulfoxide to make a 10^−2 M solution. Then, a series of 1:10 dilutions containing a maximal dose of […] were prepared using D-PBS (−). The series were used for a testing sample to measure activity. The culture medium of CHO cells of previous section was removed and washed twice with 200 μL D-PBS (−) per well. After that, 50 μL of 3-isobutyl-1-methylxanthine (SIGMA, 1 mM) was added and leaved at rest for 5 minutes, and 50 μL of testing sample were added in them and they were incubated under an atomosphere of 5% CO2 at 37° C. for 30 minutes. cAMP concentrations accumulated in cells were reacted in cAMP-Screen and were detected by Microplate LuminometerTR717.

β2-adrenoceptor = target: T4, β2-adrenoceptor (Rattus norvegicus, UniProt P10608); test: β2-adrenoceptor stimulation in isolated tissue: inhibition of spontaneous contraction of pregnant rat uterus (Magnus method); parameters: species or system SD rat; conditions: read-out: β2 receptor EC50
T4 construct: The uterus of pregnant SD rat (Day 21 of gestation) was isolated and longitudinal muscle strip; from tissue; host or cells: pregnant SD rat uterus, longitudinal muscle strip
T4 sequence (P10608 whole entry): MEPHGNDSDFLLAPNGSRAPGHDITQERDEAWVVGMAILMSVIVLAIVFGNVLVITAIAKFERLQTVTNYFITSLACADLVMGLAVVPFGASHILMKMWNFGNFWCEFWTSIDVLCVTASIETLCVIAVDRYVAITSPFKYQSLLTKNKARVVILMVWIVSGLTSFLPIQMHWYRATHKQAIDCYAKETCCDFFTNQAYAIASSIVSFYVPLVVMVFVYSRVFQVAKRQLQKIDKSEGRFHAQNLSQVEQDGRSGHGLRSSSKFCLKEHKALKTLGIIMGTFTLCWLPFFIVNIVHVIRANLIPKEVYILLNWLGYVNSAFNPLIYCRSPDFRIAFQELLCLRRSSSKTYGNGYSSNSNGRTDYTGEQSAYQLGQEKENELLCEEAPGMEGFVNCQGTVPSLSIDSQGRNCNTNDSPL
Method: 3) Measurement of β2-adrenoceptor Stimulation
The uterus of pregnant SD rat (Day 21 of gestation) was isolated and longitudinal muscle strip, which was avoided placenta attached part, about 15 mm in length and 5 mm in width was taken and the experiment was conducted according to a Magnus method. The preparation was suspended in a Locke-Ringer solution maintained at 37° C. and gassed with a mixed gas of 95% O2 and 5% CO2 and stretched at a tension of 0.5 g. Spontaneous contraction of uterus was outputted through an isometric force transducer and recorded on an oscillograph through a tachometer. The test compound was added cumulatively into a Magnus bath by every 5 minutes. Potencies were evaluated that the sum of uterine contraction for 5 minutes before the addition of test compounds was taken as a 100%, and compared with the sum of uterine contraction for 5 minutes after the addition of each concentration of test compounds. […] (R)-3′-[[2-[[2-(3-chlorophenyl)-2-hydroxyethyl]-aminoethoxy]-[1,1′-biphenyl]-3-carboxylic acid which was described in example 17 on WO99/65877 was also examined as a comparison example.

human β2-adrenoceptor = target: T5, human β2-adrenoceptor (Homo sapiens, UniProt P07550); test: Agonistic activities on human β2-adrenoceptor (cAMP in transfected CHO cells); type: cell-based; conditions: intrinsic activity: maximum reaction relative to isoproterenol maximum (100%)
T5 construct: expressed in transfected cells; host or cells: CHO cells
T5 sequence (P07550 whole entry): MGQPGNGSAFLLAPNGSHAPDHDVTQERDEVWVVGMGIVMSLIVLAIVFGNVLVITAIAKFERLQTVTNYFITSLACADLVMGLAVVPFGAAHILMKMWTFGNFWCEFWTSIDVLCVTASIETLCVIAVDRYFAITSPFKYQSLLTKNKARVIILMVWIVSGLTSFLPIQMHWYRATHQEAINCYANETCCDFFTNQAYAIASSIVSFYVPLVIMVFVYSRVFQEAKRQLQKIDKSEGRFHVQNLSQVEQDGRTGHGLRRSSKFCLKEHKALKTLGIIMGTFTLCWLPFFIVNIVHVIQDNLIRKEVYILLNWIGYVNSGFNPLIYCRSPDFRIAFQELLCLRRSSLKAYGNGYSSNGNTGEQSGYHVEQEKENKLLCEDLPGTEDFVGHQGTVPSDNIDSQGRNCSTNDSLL
Text: as §1
(2) Human β2-adrenoceptor
The primer which added a restriction enzyme recognition region to 5′ end was designed on the basis of the base information that is registered with GenBank/EMBL data base as Accession No. M15169, and the clone was obtained by performance of PCR using human bladder origin cDNA as a template. The clone was inserted in top GEM-T vector and was amplified in Escherichia coli bacteria as a plasmid, and it was purified and the sequence of full length and around of insertion sequence determined by means of 310 Genetic Analyzer (ABI).
(2) Preparation of Human β2-adrenoceptor Expressed Cells
The plasmid (80 ng) for expression obtained in the previous section was transfected into […] suspended in DMEM containing 10% fetal bovine serum by means of Lipofectoamine2000. These cells were dispensed in 96 well plate by 5×10^4 cells/100 μL per well and were cultured under an atmosphere of 5% CO2 at 37° C. for 24 hours, and were used for the assay.
as §2, §3

[1] = Transport study using human intestinal epithelium tissue (Caco-2); type: in vitro ADME; conditions: inside (pH 6.0) to outside (pH 7.4), 37° C., read-out: permeability coefficient Caco-2 Papp
Method: 1) Preparation of Culture Medium.
Dulbecco's modified Eagle's medium (Invitrogen Life Technologies) containing 1% fetal bovine serum (Sanko Jyunyaku), 1% MEM-nonessential amino acids, […] L-glutamine (Invitrogen Life Technologies), 1% penicillin—streptomycin 10000 units/mL-10000 μg/mL (Invitrogen Life Technologies) was prepared and used as a culture medium.
Caco-2 cells (American Type Culture Collection) were subcultured in a culture flask containing the culture medium.
After removing the culture medium before the cell reaches confluent, Caco-2 cells were washed with Hank's balanced salt solution Ca, Mg Free (Invitrogen Life Technologies).
The culture medium in the inside and outside compartments of the Traswell chamber was removed and replaced by a buffer solution containing 10 mM MES (pH 6.0) or 10 mM HEPES (pH7.4). The medium volume in the inside and outside compartments of the chamber was made at 0.1 mL (pH 6.0) and 0.5 mL (pH 7.4), respectively. The medium of the inside compartment was replaced by a buffer solution (pH 6.0) containing test compounds. For evaluating the transport of the test compounds from the inside compartment to the outside compartment, 100 μL of the outside buffer was sampled after incubating at 37° C. for 1 hr.
The apparent permeability coefficient was calculated as the following equation. The amounts of the test compounds in the outside buffer sampled were divided by incubation time. In addition, the amounts of penetration per incubation time (second) were divided by the concentration of the added test compound and the membrane surface.
[formula] • Papp is apparent permeability coefficient. (×10^−6 cm/sec) • dQ/dt is amount of penetration per incubation time. • Co is the initial concentration. (100 μM) • A is the membrane surface area. (0.33 cm^2) • The concentrations of test compounds were determined using LC/MS/MS.

T1 sequence (P18090 whole entry): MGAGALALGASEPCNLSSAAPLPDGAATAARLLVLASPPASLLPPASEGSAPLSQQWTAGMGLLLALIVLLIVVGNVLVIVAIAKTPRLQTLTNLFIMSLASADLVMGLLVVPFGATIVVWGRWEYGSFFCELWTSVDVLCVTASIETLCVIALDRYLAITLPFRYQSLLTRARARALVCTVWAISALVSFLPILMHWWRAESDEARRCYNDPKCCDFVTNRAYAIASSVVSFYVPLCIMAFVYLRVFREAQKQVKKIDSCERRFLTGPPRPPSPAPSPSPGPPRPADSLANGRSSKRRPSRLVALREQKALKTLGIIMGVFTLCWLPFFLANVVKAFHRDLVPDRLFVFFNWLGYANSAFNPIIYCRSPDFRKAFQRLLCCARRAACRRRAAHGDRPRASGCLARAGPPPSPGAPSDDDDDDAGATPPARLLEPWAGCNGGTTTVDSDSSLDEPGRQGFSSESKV

Compound | EC50 (β1-adrenoceptor) [nM] | EC50 (ddY mice adipocytes) [nM] | β3 receptor I.A. (human β3-adrenoceptor) [%] | EC50 (human β3-adrenoceptor) [nM] | EC50 (human β1-adrenoceptor; CHO cells expressing human β1-adrenoceptor, cAMP, 50% of isoproterenol maximum, read-out: β1 receptor EC50) [nM] | β1 receptor I.A. (human β1-adrenoceptor) [%] | EC50 (β2-adrenoceptor) [nM] | β2 receptor I.A. (human β2-adrenoceptor) [%] | Papp at 1 h, 100 μM [1] [×10⁻⁶ cm/s] | Emax (human β1-adrenoceptor; CHO, read-out: β1 receptor EC50) [%] | EC50 (human β1-adrenoceptor; read-out: β1 receptor EC50) [nM]
O=C(O)c1cccc(-c2cccc(OCCNC[C@H](O)c3cccc(Cl)c3)c2)c1 [Comparison, reference compound] | 1880 | > 1000 | 41 | > 10000 | 740 | 60 | > 10000 | 15 |  |  | 
Cc1cc(C(=O)O)ccc1-c1cc(C)c(OCCN[C@@H](C)[C@H](O)c2ccc(O)cc2)c(C)c1 [Compound 3, 4′-{2-[(1S,2R)-2-Hydroxy-2-(4-hydroxyphenyl)-1-methylethyl-amino]ethoxy}-2,3′,5′-trimethylbiphenyl-4-carboxylic acid] |  |  |  |  |  |  |  |  | 19.9 |  | 
Cc1cc(-c2ccc(C(=O)O)c(C(C)C)c2)cc(C)c1OCCN[C@@H](C)[C@H](O)c1ccc(O)cc1 [Compound 4, 4′-{2-[(1S,2R)-2-Hydroxy-2-(4-hydroxyphenyl)-1-methylethyl-amino]ethoxy}-3-isopropyl-3′,5′-dimethylbiphenyl-4-carboxylic acid] |  |  | 94 | 240 |  | 45 |  | 27 | 15.7 | < 50 | 
CCCc1cc(C(=O)O)ccc1-c1cc(C)c(OCCN[C@@H](C)[C@H](O)c2ccc(O)cc2)c(C)c1 [Compound 26] |  | 11.2 | 125 | 57 |  | 74 |  | 49 |  |  | 2280
CCc1cc(C(=O)O)ccc1-c1ccc(OCCN[C@@H](C)[C@H](O)c2ccc(O)cc2)cc1 [Compound 153, 2-Ethyl-4′-{(1S,2R)-2-[2-hydroxy-2-(4-hydroxyphenyl)-1-methylethylamino]ethoxy}biphenyl-4-carboxylic acid] | > 10000 |  | 97 | 480 |  | 57 | 2680 | 28 |  |  | 4320
CC(C)c1cc(C(=O)O)ccc1-c1ccc(OCCN[C@@H](C)[C@H](O)c2ccc(O)cc2)cc1 [Compound 156] | > 10000 | 19.5 | 239 | 25 |  | 87 | 5870 | 27 | 3.4 |  | 18900
CCCc1cc(C(=O)O)ccc1-c1ccc(OCCN[C@@H](C)[C@H](O)c2ccc(O)cc2)cc1 [Compound 160] |  |  | 91 | 200 |  | 62 |  | 32 | 4 |  | 790
CC(C)NCC(O)c1ccc(O)c(O)c1 (centres unmarked) [Isoproterenol, reference compound] |  |  | 100 |  |  |  |  |  |  |  | 

Reference: US7674938B2, “Amino alcohol derivatives, pharmaceutical compositions containing the same, and use thereof” (Kissei Pharmaceutical Co., Ltd., priority 2003, dated 2010)
